{
  "source": "patent US8841330B2",
  "about": "“Omega-carboxyaryl substituted diphenyl ureas as raf kinase inhibitors” (Bayer Healthcare LLC, priority 2000, dated 2014)",
  "data": [
    {"compound": "CNC(=O)c1cc(Oc2ccc(NC(=O)Nc3ccc(Oc4ccnc(C(=O)NC)c4)cc3)cc2)ccn1", "note": "[Entry 103, bis(4-(2-(N-methylcarbamoyl)-4-pyridyloxy)phenyl)urea]", "values": [
      {"measurement": "melting point", "result": "125 to 130", "unit": "°C"}
    ]},
    {"compound": "COC(=O)c1ccc(Oc2ccc(NC(=O)Nc3ccc(Cl)c(C(F)(F)F)c3)cc2)cn1", "note": "[Entry 55, N-(4-chloro-3-(trifluoromethyl)phenyl)-N′-(4-(2-(methoxycarbonyl)-5-pyridyloxy)phenyl)urea]", "values": [
      {"measurement": "melting point", "result": "228 to 230", "unit": "°C"}
    ]}
  ]
}
